Test results published in patent publication US9345742B2, “Aminostatin derivatives for the treatment of arthrosis” (MERCK PATENT GMBH, priority 2011, dated 2016).
Numbered stars: 1 amine (or outer) side, 2 acyl side, 3 side chain; on linkers, the order of the positions; unused ones are H or OH. Square brackets hold non-standard residues; d marks the D form. Peptide text beside a SMILES is read from it. * marks the point of attachment. X1 = N[C@@H](CC(=O)[*:2])[C@H](Cc1ccccc1)N[*:1]; Isovaleryl = CC(C)CC(=O)*; Abu = CC[C@H](N)C(=O)O; Boc = CC(C)(C)OC(=O)*

Experiments:
[1] = molecular target: recombinant human renin (Homo sapiens (Human), UniProt P00797); test: In-vitro fluorescence assay for identification of renin-inhibitory activity; assay type: biochemical; conditions: recombinant human renin 10 nM, pH 7.2; read-out: Renin selectivity IC50
Sequence of recombinant human renin (P00797 67-406): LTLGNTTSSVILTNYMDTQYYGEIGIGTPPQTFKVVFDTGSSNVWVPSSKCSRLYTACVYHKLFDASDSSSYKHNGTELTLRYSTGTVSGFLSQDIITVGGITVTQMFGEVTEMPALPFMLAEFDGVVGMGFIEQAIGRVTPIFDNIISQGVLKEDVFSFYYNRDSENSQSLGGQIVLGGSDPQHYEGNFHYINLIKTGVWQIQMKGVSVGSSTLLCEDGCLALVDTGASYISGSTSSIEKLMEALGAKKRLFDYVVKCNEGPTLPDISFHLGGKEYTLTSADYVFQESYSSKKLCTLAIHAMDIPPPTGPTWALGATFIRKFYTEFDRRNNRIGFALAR
Method: In order to identify modulators of renin activity, a continuous enzymatic test was carried out with a synthetic peptide which carries a fluorescent group Edans (=(5-(aminoethyl)aminonaphthalenesulfonate) which is quenched by energy transfer from a Dabcyl (4′-dimethylaminoazobenzene-4-carboxylate) group on the same molecule, in Greiner 384-well microtitre plates. Cleavage of the peptidic substrate by renin causes an increase in the fluorescence intensity. In order to determine the efficacy of substances, the time-dependent increase in the fluorescence intensity in the presence of the substance was compared with the time-dependent increase in fluorescence in the absence of substances. The reference substance used was renin inhibitor 2 (Z-Arg-Arg-Pro-Phe-His-Sta-Ile-His N-Boc-Lys methyl ester Z) (Sigma-Aldrich). The substrate used was renin FRET substrate I (DABCYL-g-Abu-[…]EDANS) (Anaspec, Fremont Calif.). The enzyme employed was recombinant human renin (Proteos, Kalamazoo, Mich.) in a final concentration of 10 nM. The test was carried out in 50 mM Mops buffer, 1.5% (v/v) of DMSO, 0.1% (w/v) of Igepal®, pH 7.2, 0.5% (w/v) of BSA. 2 μl of each substance solution with serially diluted substance concentration were added to in each case 4 μl of renin solution and incubated at room temperature for 15 min. The reaction was started by addition of 4 μl of substrate solution (final concentration 5 μM). After carrying out a starting-point fluorescence measurement (excitation wavelength 340 nm/emission wavelength 495 nm) using an Envision multilabel reader (Perkin Elmer), the reaction was incubated at 37° C. for 60 min. The amount of peptide fragment cleaved off during the reaction time was subsequently measured by determination of the increase in the fluorescence intensity at 495 nm (excitation wavelength 340 nm).

[2] = molecular target: cathepsin D isolated from the human liver (Homo sapiens (Human), UniProt P07339); test: In-vitro fluorescence assay for identification of cathepsin D inhibitors; assay type: biochemical; conditions: cathepsin D 1.4 nM, pH 5.5; read-out: CatD assay IC50-
Sequence of cathepsin D isolated from the human liver (P07339 65-161): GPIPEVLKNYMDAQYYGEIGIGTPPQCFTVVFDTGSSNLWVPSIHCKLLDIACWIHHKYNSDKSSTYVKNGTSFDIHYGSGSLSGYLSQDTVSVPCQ
Sequence of cathepsin D isolated from the human liver (P07339 169-412): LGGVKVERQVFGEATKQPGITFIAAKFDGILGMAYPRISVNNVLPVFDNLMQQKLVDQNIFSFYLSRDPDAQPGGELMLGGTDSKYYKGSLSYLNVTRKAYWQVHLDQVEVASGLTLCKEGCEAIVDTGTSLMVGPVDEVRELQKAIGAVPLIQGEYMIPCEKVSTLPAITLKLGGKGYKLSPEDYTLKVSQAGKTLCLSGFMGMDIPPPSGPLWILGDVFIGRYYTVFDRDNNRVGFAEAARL
Method: In order to identify modulators of cathepsin D activity, a continuous enzymatic test was carried out with a synthetic peptide which carries a fluorescent group (MCA=(7-methoxycoumarin-4-yl)acetyl) which is quenched by energy transfer from a Dpn (2,4 dinitrophenyl) group on the same molecule, in Greiner 384-well nb microtitre plates. Cleavage of the peptidic substrate by cathepsin D causes an increase in the fluorescence intensity. In order to determine the efficacy of substances, the time-dependent increase in the fluorescence intensity in the presence of the substance was compared with the time-dependent increase in fluorescence in the absence of substances. The reference substance used was pepstatin A (Sigma-Aldrich). The substrate used was […](Dnp)d-R—NH2 (Enzo Life Sciences, Lörrach). The enzyme employed was cathepsin D isolated from the human liver (Sigma-Aldrich) in a final concentration of 1.4 nM. The test was carried out in 100 mM sodium acetate buffer, 1.25% (v/v) of DMSO, 0.25% (w/v) of Chaps, pH 5.5. 2 μl of each substance solution with serially diluted substance concentration were added to in each case 4 μl of cathepsin D solution and incubated at room temperature for 10 min. The reaction was started by addition of 2 μl of substrate solution (final concentration 5 μM). After carrying out a starting-point fluorescence measurement (excitation wavelength 340 nm/emission wavelength 450 nm) using an Envision multilabel reader (Perkin Elmer), the reaction was incubated at room temperature for 60 min. The amount of peptide fragment cleaved off during the reaction time was subsequently measured by determination of the increase in the fluorescence intensity at 450 nm (excitation wavelength 340 nm).

Structure (SMILES) | IC50 [1] [µM] | IC50 [2] [µM]
CC[C@H](C)[C@H](NC(=O)C[C@H](N)[C@H](Cc1ccccc1)NC(=O)[C@H](CC(C)C)NC(=O)CC(C)C)C(=O)N[C@H](C(=O)OC)C(C)C [Compound 3, Methyl (S)-2-((2S,3S)-2-{(3S,4S)-3-amino-4-[(S)-4-methyl-2-(3-methylbutyrylamino)pentanoylamino]-5-phenylpentanoylamino}-3-methylpentanoylamino)-3-methyl-butyrate] |  | 5.5
CC[C@H](NC(=O)[C@H](CC(C)C)NC(=O)CC(C)C)C(=O)N[C@@H](Cc1ccccc1)[C@@H](N)CC(=O)N[C@H](C(=O)N[C@H](C(=O)OC)C(C)C)[C@@H](C)CC [Compound 4, Methyl (S)-2-[(2S,3S)-2-((3S,4S)-3-amino-4-{(S)-2-[(S)-4-methyl-2-(3-methylbutyrylamino)pentanoylamino]-1-oxobutylamino}-5-phenylpentanoylamino)-3-methyl-pentanoylamino]-3-methylbutyrate] (Isovaleryl-L[Abu][X1]IV-OMe) |  | 0.097
CC[C@H](C)[C@H](NC(=O)C[C@H](N)[C@H](Cc1ccccc1)NC(=O)[C@@H](NC(=O)[C@H](CC(C)C)NC(=O)CC(C)C)C(C)C)C(=O)N[C@H](C(=O)OC)C(C)C [Compound 10, Methyl (S)-2-[(2S,3S)-2-((3S,4S)-3-amino-4-{(S)-3-methyl-2-[(S)-4-methyl-2-(3-methyl-butyrylamino)pentanoylamino]-1-oxobutylamino}-5-phenylpentanoylamino)-3-methylpentanoylamino]-3-methyl-butyrate] (Isovaleryl-LV[X1]IV-OMe) |  | 0.0051
CC[C@H](C)[C@H](NC(=O)C[C@H](N)[C@H](Cc1ccccc1)NC(=O)[C@@H](NC(=O)[C@H](CC(C)C)NC(=O)OC(C)(C)C)C(C)C)C(=O)N[C@H](C(=O)OC)C(C)C [Compound 16, Methyl (S)-2-((2S,3S)-2-{(3S,4S)-3-amino-4-[(S)-2-((S)-2-tert-butoxycarbonylamino-4-methylpentanoylamino)-3-methylbutyrylamino]-5-phenylpentanoylamino}-3-methyl-pentanoylamino)-3-methylbutyrate] (Boc-LV[X1]IV-OMe) |  | 0.036
CC[C@H](C)[C@H](NC(=O)C[C@H](N)[C@H](Cc1ccccc1)NC(=O)[C@@H](NC(=O)[C@H](Cc1ccccc1)NC(=O)OC(C)(C)C)C(C)C)C(=O)N[C@H](C(=O)OC)C(C)C [Compound 20, Methyl (S)-2-((2S,3S)-2-{(3S,4S)-3-amino-4-[(S)-2-((S)-2-tert-butoxycarbonylamino-3-phenylpropionylamino)-3-methylbutyrylamino]-5-phenylpentanoylamino}-3-methyl-pentanoylamino)-3-methylbutyrate] (Boc-FV[X1]IV-OMe) |  | 0.001
CC[C@H](C)[C@H](NC(=O)C[C@H](N)[C@H](Cc1ccccc1)NC(=O)[C@@H](NC(=O)[C@@H](N)Cc1ccccc1)C(C)C)C(=O)N[C@H](C(=O)OC)C(C)C [Compound 21, Methyl (S)-2-((2S,3S)-2-{(3S,4S)-3-amino-4-[(S)-2-((S)-2-amino-3-phenylpropionylamino)-3-methylbutyrylamino]-5-phenyl-pentanoylamino)-3-methylpentanoyl-amino)-3-methylbutyrate] (H-FV[X1]IV-OMe) |  | 0.081
CC[C@H](C)[C@H](NC(=O)C[C@H](N)[C@H](Cc1ccccc1)NC(=O)[C@@H](NC(=O)[C@H](CC(C)C)NC(=O)CC(C)C)C(C)C)C(=O)N[C@H](CO)C(C)C [Compound 34, N-[(1S,2S)-1-((S)-1-Hydroxymethyl-2-methylpropylcarbamoyl)-2-methylbutyl]-(S)-3-(S)-amino-4-{(S)-3-methyl-2-[(S)-4-methyl-2-(3-methylbutyrylamino)pentanoyl-amino]butyrylamino}-5-phenylpentanamide] |  | 0.0062
CC[C@H](C)[C@H](NC(=O)C[C@H](N)[C@H](Cc1ccccc1)NC(=O)[C@@H](NC(=O)[C@H](Cc1ccccc1)NC(=O)CC(C)C)C(C)C)C(=O)N[C@H](CO)C(C)C [Compound 42, N-[(1S,2S)-1-((S)-1-Hydroxymethyl-2-methylpropylcarbamoyl)-2-methylbutyl]-(S)-3-(S)-amino-4-{(S)-3-methyl-2-[(S)-2-(3-methylbutyrylamino)-3-phenylpropionylamino]butyrylamino}-5-phenylpentanamide] |  | 0.0036

Continued by falling IC50 [2], values first:

IC50 [1] [µM] | IC50 [2] [µM] | Structure (SMILES)
> 30 | 2 | CC[C@H](NC(=O)[C@@H](N)CC(C)C)C(=O)N[C@@H](Cc1ccccc1)[C@@H](N)CC(=O)N[C@H](C(=O)N[C@H](C(=O)OC)C(C)C)[C@@H](C)CC [Compound 2, Methyl (S)-2-((2S,3S)-2-{(3S,4S)-3-amino-4-[(S)-2-((S)-2-amino-4-methylpentanoylamino)butyrylamino]-5-phenylpentanoylamino}-3-methylpentanoylamino)-3-methyl-butyrate] (H-L[Abu][X1]IV-OMe)
> 30 | 1.2 | CC[C@H](NC(=O)[C@H](CC(C)C)NC(=O)CC(C)C)C(=O)N[C@@H](Cc1ccccc1)[C@@H](N)CC(=O)NCCc1ccc(Cl)c(Cl)c1 [Compound 6, N-[2-(3,4-Dichlorophenyl)ethyl]-(3S,4S)-3-amino-4-{(S)-2-[(S)-4-methyl-2-(3-methyl-butyrylamino)pentanoylamino]butyryl-amino}-5-phenylpentanamide]
> 30 | 0.2 | CC[C@H](C)[C@H](NC(=O)C[C@H](N)[C@H](Cc1ccccc1)NC(=O)[C@@H](NC(=O)COc1cccc2ccccc12)C(C)C)C(=O)N[C@H](C(=O)OC)C(C)C [Compound 8, Methyl (S)-2-[(2S,3S)-2-((3S,4S)-3-amino-4-{(S)-3-methyl-2-[2-(naphthalen-1-yloxy)-acetylamino]butyrylamino}-5-phenyl-pentanoylamino)-3-methylpentanoyl-amino]-3-methylbutyrate]
 | 0.047 | CC[C@H](C)[C@H](NC(=O)C[C@H](N)[C@H](Cc1ccccc1)NC(=O)[C@@H](NC(=O)[C@H](CC(C)C)NC(=O)CC(C)C)C(C)C)C(=O)N[C@H](C(=O)OC)[C@@H](C)CC [Compound 13, Methyl (2S,3S)-2-[(S)-2-((S)-3-(S)-amino-4-{(S)-3-methyl-2-[(S)-4-methyl-2-(3-methyl-butyrylamino)pentanoylamino]butyryl-amino}-5-phenylpentanoylamino)-3-methyl-1-(S)-oxopentylamino]-3-methylpentanoate] (Isovaleryl-LV[X1]II-OMe)
 | 0.027 | CC[C@H](C)[C@H](NC(=O)C[C@H](N)[C@H](Cc1ccccc1)NC(=O)[C@@H](NC(=O)COc1ccc(Cl)cc1Cl)C(C)C)C(=O)N[C@H](C(=O)OC)C(C)C [Compound 22, Methyl (S)-2-[(2S,3S)-2-((3S,4S)-3-amino-4-{(S)-2-[2-(2,4-dichlorophenoxy)acetylamino]-3-methylbutyrylamino)-5-phenyl-pentanoylamino)-3-methylpentanoyl-amino]-3-methylbutyrate]
> 30 | 0.018 | CC[C@H](C)[C@H](NC(=O)C[C@H](N)[C@H](Cc1ccccc1)NC(=O)[C@@H](NC(=O)Cc1cccc(OC(F)(F)F)c1)C(C)C)C(=O)N[C@H](C(=O)OC)C(C)C [Compound 7, Methyl (S)-2-[(2S,3S)-2-((3S,4S)-3-amino-4-{(S)-3-methyl-2-[2-(3-trifluoromethoxy-phenyl)acetylamino]butyrylamino}-5-phenylpentanoylamino)-3-methyl-pentanoylamino]-3-methylbutyrate]
